Reference: publication PMC5218480 (PLoS ONE, 2017)

System: MV-4-11 cells
Assay: Gene expression microarray analysis (Affymetrix PrimeView) and GSEA
Type: cell-based, human
Parameters: RFU PODN (11730768_x_at) / Fold change /veh PODN (11730768_x_at) / RFU LINC00158 (11744669_a_at) / Fold change /veh LINC00158 (11744669_a_at) / RFU DUSP10 (11751237_a_at) / Fold change /veh DUSP10 (11751237_a_at) / RFU ID3 (11757404_x_at) / Fold change /veh ID3 (11757404_x_at) / RFU PLEKHG5 (11737974_s_at) / Fold change /veh PLEKHG5 (11737974_s_at) / RFU LRRC4B (11730491_at) / Fold change /veh LRRC4B (11730491_at) / RFU GIMAP4 (11747438_a_at) / Fold change /veh GIMAP4 (11747438_a_at) / RFU KRT8 (11758183_x_at) / Fold change /veh KRT8 (11758183_x_at) / RFU CNN1 (11734310_a_at) / Fold change /veh CNN1 (11734310_a_at) / RFU VPS37D (11726825_at) / Fold change /veh VPS37D (11726825_at) / RFU C10orf10 (11716522_x_at) / Fold change /veh C10orf10 (11716522_x_at) / RFU KIR2DL2 /// KIR2DL4 /// KIR2DL5A /// KIR2DL5B /// KIR2DS1 /// KIR2DS2 /// KIR2DS3 /// KIR2DS4 /// KIR3DL3 /// KIR3DL3 /// KIR3DS1 (11738374_at) / Fold change /veh KIR2DL2 /// KIR2DL4 /// KIR2DL5A /// KIR2DL5B /// KIR2DS1 /// KIR2DS2 /// KIR2DS3 /// KIR2DS4 /// KIR3DL3 /// KIR3DL3 /// KIR3DS1 (11738374_at) / RFU C1QL1 (11718748_at) / Fold change /veh C1QL1 (11718748_at) / RFU TMPRSS4 (11747572_a_at) / Fold change /veh TMPRSS4 (11747572_a_at) / RFU HAMP (11756126_x_at) / Fold change /veh HAMP (11756126_x_at) / RFU RNFT2 (11725882_a_at) / Fold change /veh RNFT2 (11725882_a_at) / RFU NR4A2 (11747474_a_at) / Fold change /veh NR4A2 (11747474_a_at) / RFU ABCC12 (11746883_a_at) / Fold change /veh ABCC12 (11746883_a_at) / RFU TMEM136 (11760407_x_at) / Fold change /veh TMEM136 (11760407_x_at) / RFU CLDN22 /// WWC2 (11732394_at) / Fold change /veh CLDN22 /// WWC2 (11732394_at) / RFU HLA-DPB1 (11760878_x_at) / Fold change /veh HLA-DPB1 (11760878_x_at) / RFU SPINT1 (11716480_a_at) / Fold change /veh SPINT1 (11716480_a_at) / RFU GAP43 (11754022_s_at) / Fold change /veh GAP43 (11754022_s_at) / RFU A4GNT (11735810_at) / Fold change /veh A4GNT (11735810_at) / RFU PRB3 (11715151_x_at) / Fold change /veh PRB3 (11715151_x_at) / RFU TUBB4B (11761932_at) / Fold change /veh TUBB4B (11761932_at) / RFU CAPN14 (11732068_a_at) / Fold change /veh CAPN14 (11732068_a_at) / RFU TMCC2 (11721928_a_at) / Fold change /veh TMCC2 (11721928_a_at) / RFU IRGQ (11745062_a_at) / Fold change /veh IRGQ (11745062_a_at) / RFU FAM174B (11720279_a_at) / Fold change /veh FAM174B (11720279_a_at) / RFU TMPRSS4 (11748680_a_at) / Fold change /veh TMPRSS4 (11748680_a_at) / RFU FAM212B (11763350_a_at) / Fold change /veh FAM212B (11763350_a_at) / RFU PLEKHG5 (11743358_a_at) / Fold change /veh PLEKHG5 (11743358_a_at) / RFU ZSCAN30 (11745921_a_at) / Fold change /veh ZSCAN30 (11745921_a_at) / RFU CMKLR1 (11741424_a_at) / Fold change /veh CMKLR1 (11741424_a_at) / RFU LOC101060620 /// MAPK8IP1 (11723275_at) / Fold change /veh LOC101060620 /// MAPK8IP1 (11723275_at) / RFU SPTSSB (11747773_x_at) / Fold change /veh SPTSSB (11747773_x_at) / RFU PRSS12 (11739890_at) / Fold change /veh PRSS12 (11739890_at) / RFU BIN1 (11741810_x_at) / Fold change /veh BIN1 (11741810_x_at) / RFU WNT11 (11732464_a_at) / Fold change /veh WNT11 (11732464_a_at) / RFU C10orf10 (11716521_a_at) / Fold change /veh C10orf10 (11716521_a_at) / RFU C5orf56 (11738089_at) / Fold change /veh C5orf56 (11738089_at) / RFU CYB561 (11721691_x_at) / Fold change /veh CYB561 (11721691_x_at) / RFU ANKRD19P (11752326_a_at) / Fold change /veh ANKRD19P (11752326_a_at) / RFU OR2T12 /// OR2T33 /// OR2T8 (11738714_s_at) / Fold change /veh OR2T12 /// OR2T33 /// OR2T8 (11738714_s_at) / RFU VCAN (11748164_a_at) / Fold change /veh VCAN (11748164_a_at) / RFU JSRP1 (11732532_at) / Fold change /veh JSRP1 (11732532_at) / RFU KRTAP10-11 (11738290_x_at) / Fold change /veh KRTAP10-11 (11738290_x_at) / RFU MYO3A (11730013_a_at) / Fold change /veh MYO3A (11730013_a_at) / RFU EBF3 (11725865_a_at) / Fold change /veh EBF3 (11725865_a_at) / RFU CAMK2N1 (11719241_x_at) / Fold change /veh CAMK2N1 (11719241_x_at) / RFU C5orf56 (11738088_a_at) / Fold change /veh C5orf56 (11738088_a_at) / RFU OLFML3 (11715873_a_at) / Fold change /veh OLFML3 (11715873_a_at) / RFU LOC100653217 /// NTM (11731650_a_at) / Fold change /veh LOC100653217 /// NTM (11731650_a_at) / RFU MAPK11 (11762145_a_at) / Fold change /veh MAPK11 (11762145_a_at) / RFU FIZ1 (11724087_x_at) / Fold change /veh FIZ1 (11724087_x_at) / RFU OASL (11726364_x_at) / Fold change /veh OASL (11726364_x_at) / RFU SOX15 (11748057_x_at) / Fold change /veh SOX15 (11748057_x_at) / RFU CD79A (11719716_a_at) / Fold change /veh CD79A (11719716_a_at) / RFU HIST1H1D (11736915_at) / Fold change /veh HIST1H1D (11736915_at) / RFU CASKIN2 (11723855_a_at) / Fold change /veh CASKIN2 (11723855_a_at) / RFU LOC730098 (11760151_x_at) / Fold change /veh LOC730098 (11760151_x_at) / RFU OR4N2 (11742367_at) / Fold change /veh OR4N2 (11742367_at) / RFU PRRT2 (11749266_a_at) / Fold change /veh PRRT2 (11749266_a_at) / RFU SNX32 (11753110_a_at) / Fold change /veh SNX32 (11753110_a_at) / RFU CDHR5 (11726645_a_at) / Fold change /veh CDHR5 (11726645_a_at) / RFU RCAN1 (11760418_a_at) / Fold change /veh RCAN1 (11760418_a_at) / RFU FAM167A (11723789_a_at) / Fold change /veh FAM167A (11723789_a_at) / RFU FAM26E (11764081_at) / Fold change /veh FAM26E (11764081_at) / RFU ISYNA1 (11749810_s_at) / Fold change /veh ISYNA1 (11749810_s_at) / RFU ACY1 (11761880_at) / Fold change /veh ACY1 (11761880_at) / RFU 11764098_at / Fold change /veh 11764098_at / RFU SAMD14 (11745864_x_at) / Fold change /veh SAMD14 (11745864_x_at) / RFU NPB (11741838_a_at) / Fold change /veh NPB (11741838_a_at) / RFU TMPRSS6 (11731388_a_at) / Fold change /veh TMPRSS6 (11731388_a_at) / RFU KRTAP10-2 (11738614_at) / Fold change /veh KRTAP10-2 (11738614_at) / RFU ARHGAP8 /// PRR5-ARHGAP8 (11727945_x_at) / Fold change /veh ARHGAP8 /// PRR5-ARHGAP8 (11727945_x_at) / RFU KRTAP5-7 /// NADSYN1 (11734609_at) / Fold change /veh KRTAP5-7 /// NADSYN1 (11734609_at) / RFU RASL12 (11751679_a_at) / Fold change /veh RASL12 (11751679_a_at) / RFU CDKN2B (11736163_a_at) / Fold change /veh CDKN2B (11736163_a_at) / RFU PRF1 (11729649_at) / Fold change /veh PRF1 (11729649_at) / RFU, ZNF638 /// ZNF638-IT1 / Fold change vs veh, ZNF638 /// ZNF638-IT1 / RFU, PANK3 / Fold change vs veh, PANK3 / RFU, SH3YL1 / Fold change vs veh, SH3YL1 / RFU, ZEB2 / Fold change vs veh, ZEB2 / RFU, NRIP1 / Fold change vs veh, NRIP1 / RFU, PTTG1IP / Fold change vs veh, PTTG1IP / RFU, CAPN2 / Fold change vs veh, CAPN2 / RFU, MED14 / Fold change vs veh, MED14 / RFU, SNORA58 / Fold change vs veh, SNORA58 / RFU, C1orf63 / Fold change vs veh, C1orf63 / RFU, LRRFIP1 / Fold change vs veh, LRRFIP1 / RFU, NDUFAF7 / Fold change vs veh, NDUFAF7 / RFU, SLC12A2 / Fold change vs veh, SLC12A2 / RFU, IBTK / Fold change vs veh, IBTK / RFU, ESF1 / Fold change vs veh, ESF1 / Fold change vs veh, TMEM50B / RFU, TAOK1 / Fold change vs veh, TAOK1 / RFU, ACBD3 / Fold change vs veh, ACBD3 / RFU, TMA16 / Fold change vs veh, TMA16 / RFU, RWDD3 / Fold change vs veh, RWDD3 / RFU, BCAT1 / Fold change vs veh, BCAT1 / RFU, EDEM3 / Fold change vs veh, EDEM3 / RFU, TMEM33 / Fold change vs veh, TMEM33 / RFU, WDR75 / Fold change vs veh, WDR75 / RFU, AHCTF1 / Fold change vs veh, AHCTF1 / RFU, TFRC / Fold change vs veh, TFRC / RFU, ZDHHC17 / Fold change vs veh, ZDHHC17 / RFU, NOM1 / Fold change vs veh, NOM1 / RFU, ARL8B / Fold change vs veh, ARL8B / RFU, ZBTB11 / Fold change vs veh, ZBTB11 / RFU, TAMM41 / Fold change vs veh, TAMM41 / RFU, KIAA1704 /// LOC100996395 / Fold change vs veh, KIAA1704 /// LOC100996395 / RFU, ING1 / Fold change vs veh, ING1 / RFU, TRMT61B / Fold change vs veh, TRMT61B / RFU, FUBP3 / Fold change vs veh, FUBP3 / RFU, TP53 / Fold change vs veh, TP53 / RFU, TNKS2 / Fold change vs veh, TNKS2 / RFU, ZFP14 / Fold change vs veh, ZFP14 / RFU, ACTR2 / Fold change vs veh, ACTR2 / RFU, PPP3R1 / Fold change vs veh, PPP3R1 / RFU, PIK3R1 / Fold change vs veh, PIK3R1 / RFU, HNRNPA1 / Fold change vs veh, HNRNPA1 / RFU, RNF170 / Fold change vs veh, RNF170 / RFU, ZNF28 / Fold change vs veh, ZNF28 / RFU, RNGTT / Fold change vs veh, RNGTT / RFU, OGT / Fold change vs veh, OGT / RFU, BRD1 / Fold change vs veh, BRD1 / RFU, MARS / Fold change vs veh, MARS / RFU, ZNF655 / Fold change vs veh, ZNF655 / RFU, FAHD1 / Fold change vs veh, FAHD1 / RFU, BDP1 / Fold change vs veh, BDP1 / RFU, LRRCC1 / Fold change vs veh, LRRCC1 / RFU, ARID1A / Fold change vs veh, ARID1A / RFU, ZNF146 / Fold change vs veh, ZNF146 / RFU, ZNF330 / Fold change vs veh, ZNF330 / RFU, GPN3 / Fold change vs veh, GPN3 / RFU, C9orf123 / Fold change vs veh, C9orf123 / RFU, N4BP2L2 / Fold change vs veh, N4BP2L2 / RFU, ARFIP1 / Fold change vs veh, ARFIP1 / RFU, FAM179B / Fold change vs veh, FAM179B / RFU, BCL10 / Fold change vs veh, BCL10 / RFU, UHRF1BP1L / Fold change vs veh, UHRF1BP1L / RFU, BET1 / Fold change vs veh, BET1 / RFU, CNOT2 / Fold change vs veh, CNOT2 / RFU, ZNF268 / Fold change vs veh, ZNF268 / Fold change vs veh, ZNF507 / RFU, DGCR2 / Fold change vs veh, DGCR2 / RFU, WDSUB1 / Fold change vs veh, WDSUB1 / Fold change vs veh, HSP90B1 /// MIR3652 / RFU, ADSS / Fold change vs veh, ADSS / RFU, GK / Fold change vs veh, GK / RFU, ZNF148 / Fold change vs veh, ZNF148 / RFU, TAF9 / Fold change vs veh, TAF9 / RFU, SLC1A5 / Fold change vs veh, SLC1A5 / RFU, SLMO2 / Fold change vs veh, SLMO2 / RFU, ABCC4 / Fold change vs veh, ABCC4 / RFU, LOC101060439 /// RAP1B / Fold change vs veh, LOC101060439 /// RAP1B / RFU, RFX7 / Fold change vs veh, RFX7 / RFU, GTPBP10 / Fold change vs veh, GTPBP10 / RFU, CNEP1R1 / Fold change vs veh, CNEP1R1 / RFU, BIVM-ERCC5 /// ERCC5 / Fold change vs veh, BIVM-ERCC5 /// ERCC5 / RFU, ILF3 / Fold change vs veh, ILF3 / RFU 11762660_at / Fold change /veh 11762660_at / RFU VCAN (11757783_s_at) / Fold change /veh VCAN (11757783_s_at) / RFU DDX43 (11728927_at) / Fold change /veh DDX43 (11728927_at) / RFU KRT8 (11758188_x_at) / Fold change /veh KRT8 (11758188_x_at) / RFU NKD1 (11759106_at) / Fold change /veh NKD1 (11759106_at) / RFU SRD5A1 (11742802_a_at) / Fold change /veh SRD5A1 (11742802_a_at) / RFU TPSAB1 /// TPSB2 (11721975_s_at) / Fold change /veh TPSAB1 /// TPSB2 (11721975_s_at) / RFU GSTM3 (11746129_a_at) / Fold change /veh GSTM3 (11746129_a_at) / RFU IL23R (11737362_x_at) / Fold change /veh IL23R (11737362_x_at) / RFU TMEM51 (11727254_a_at) / Fold change /veh TMEM51 (11727254_a_at) / RFU PIWIL2 (11732686_x_at) / Fold change /veh PIWIL2 (11732686_x_at) / RFU ORM1 (11744905_x_at) / Fold change /veh ORM1 (11744905_x_at) / RFU CCDC152 (11743942_at) / Fold change /veh CCDC152 (11743942_at) / RFU ECM1 (11717891_a_at) / Fold change /veh ECM1 (11717891_a_at) / RFU IL23R (11748794_a_at) / Fold change /veh IL23R (11748794_a_at) / RFU TNFAIP8L3 (11732012_x_at) / Fold change /veh TNFAIP8L3 (11732012_x_at) / RFU MBOAT4 (11741988_at) / Fold change /veh MBOAT4 (11741988_at) / RFU 11764193_at / Fold change /veh 11764193_at / RFU TMEM53 (11763286_at) / Fold change /veh TMEM53 (11763286_at) / RFU MAGEB2 (11727129_at) / Fold change /veh MAGEB2 (11727129_at) / RFU TMEM200A (11744735_a_at) / Fold change /veh TMEM200A (11744735_a_at) / RFU CCDC152 (11751479_a_at) / Fold change /veh CCDC152 (11751479_a_at) / RFU FAM211A (11726209_a_at) / Fold change /veh FAM211A (11726209_a_at) / RFU RGS16 (11746705_a_at) / Fold change /veh RGS16 (11746705_a_at) / RFU VCAN (11755009_s_at) / Fold change /veh VCAN (11755009_s_at) / RFU RHOB (11743442_s_at) / Fold change /veh RHOB (11743442_s_at) / RFU RGS16 (11720943_a_at) / Fold change /veh RGS16 (11720943_a_at) / RFU RGS16 (11720944_at) / Fold change /veh RGS16 (11720944_at) / RFU, VPS4B / Fold change vs veh, VPS4B / RFU, CREB1 / Fold change vs veh, CREB1 / RFU, DNAJC13 / Fold change vs veh, DNAJC13 / RFU, GNAQ / Fold change vs veh, GNAQ / RFU, CDK5R1 / Fold change vs veh, CDK5R1 / RFU, ZRANB3 / Fold change vs veh, ZRANB3 / RFU, CUL4A / Fold change vs veh, CUL4A / RFU, CCNY / Fold change vs veh, CCNY / RFU, UFL1 / Fold change vs veh, UFL1 / RFU, COG3 / Fold change vs veh, COG3 / RFU, DIAPH2 / Fold change vs veh, DIAPH2 / RFU, SKA2 / Fold change vs veh, SKA2 / RFU, AFF3 / Fold change vs veh, AFF3 / RFU, LMF1 / Fold change vs veh, LMF1 / RFU, IPO11 / Fold change vs veh, IPO11 / RFU, DFFB / Fold change vs veh, DFFB / RFU, FOXP1 / Fold change vs veh, FOXP1 / RFU, CARD8 / Fold change vs veh, CARD8 / RFU, STRN3 / Fold change vs veh, STRN3 / RFU, ADK / Fold change vs veh, ADK / RFU, RASSF2 / Fold change vs veh, RASSF2 / RFU, WIPF1 / Fold change vs veh, WIPF1 / RFU, LARP1B / Fold change vs veh, LARP1B / RFU, RASA1 / Fold change vs veh, RASA1 / RFU, RB1 / Fold change vs veh, RB1 / RFU, PPFIA1 / Fold change vs veh, PPFIA1 / RFU, MAT2A / Fold change vs veh, MAT2A / RFU, CCT5 / Fold change vs veh, CCT5 / RFU, WDR92 / Fold change vs veh, WDR92 / RFU, CUX1 / Fold change vs veh, CUX1 / RFU, TTC7A / Fold change vs veh, TTC7A / RFU, TMEM135 / Fold change vs veh, TMEM135 / RFU, DEPTOR / Fold change vs veh, DEPTOR / RFU, CPM / Fold change vs veh, CPM / RFU, DNAJB6 / Fold change vs veh, DNAJB6 / RFU, CACNA2D3 / Fold change vs veh, CACNA2D3 / RFU, DTX4 / Fold change vs veh, DTX4 / RFU, TFCP2 / Fold change vs veh, TFCP2 / RFU, GMCL1 /// GMCL1P1 / Fold change vs veh, GMCL1 /// GMCL1P1 / RFU, AEBP2 / Fold change vs veh, AEBP2 / RFU, SNHG1 /// SNORD22 /// SNORD25 /// SNORD26 /// SNORD27 /// SNORD28 /// SNORD29 /// SNORD31 / Fold change vs veh, SNHG1 /// SNORD22 /// SNORD25 /// SNORD26 /// SNORD27 /// SNORD28 /// SNORD29 /// SNORD31 / Fold change (Aza/veh), C12orf56 (ProbeSet 11735607_a_at) / Fold change (ACY-1035/veh), C12orf56 (ProbeSet 11735607_a_at) / Fold change (Aza/veh), FGFR1OP (ProbeSet 11751329_s_at) / Fold change (ACY-1035/veh), FGFR1OP (ProbeSet 11751329_s_at) / Fold change (Aza/veh), VPS36 (ProbeSet 11739960_a_at) / Fold change (ACY-1035/veh), VPS36 (ProbeSet 11739960_a_at) / RFU SYPL1 (11715823_x_at) / Fold change /veh SYPL1 (11715823_x_at) / RFU IGFBP7 (11715501_s_at) / Fold change /veh IGFBP7 (11715501_s_at) / RFU REEP3 (11722064_at) / Fold change /veh REEP3 (11722064_at) / RFU IGLL1 (11728026_x_at) / Fold change /veh IGLL1 (11728026_x_at): dose or concentration left out as unconfirmed
Conditions: ProbeSet 11757113_a_at; LIST D

Compound: Nc1ncn([C@@H]2O[C@H](CO)[C@@H](O)[C@H]2O)c(=O)n1 [azacitidine]
- Fold change vs veh, SNHG1 /// SNORD22 /// SNORD25 /// SNORD26 /// SNORD27 /// SNORD28 /// SNORD29 /// SNORD31: 0.81
